{"source": "patent US6730665B1", "about": "“Treatment of bone cancer” (Mayo Foundation for Medical Education and Research, priority 1999, dated 2004)", "key": {"[1]": {"system": "MG63 cells", "experiment": "Cytokine and growth factor mRNA levels by RNase protection assay", "type": "cell-based, human", "conditions": "10 μM", "description": "Changes in steady state mRNA levels for cytokines implicated in the regulation of bone formation and resorption were measured using RNase Protection assays. For RNA isolation and RNase protection assays, MG63 cells were plated at 10^6 cells per T75 culture flask a day prior to metabolite treatment. The next day, the medium was removed and replaced with fresh medium containing 10 μM concentrations of 2ME and incubated for 12, 24, 48, and 72 hours. Cells were harvested and cell pellets were used for RNA isolation. Total cellular RNA was extracted and isolated using a modified organic solvent method and the RNA yields were determined spectrohotometrically at 260 nm. Total cellular RNA was analyzed by RNase protection assays using antisense RNA probes for transforming growth factor-beta (TGF-β), tumor necrosis factor (TNF) α and β, interleukin (IL) 1α, 1β, 1Ra, 6, 10, 12 (p35 and p40), interferon (IFN) β and γ, and lymphotoxin (LT) β. Quantitation of protected RNA fragments was performed by PhosphorImager analyses and normalized to ribosomal structural protein L32 or glyceraldehyde 3-phosphate dehydrogenase levels. Results are presented in FIG. 8 and Table 4, and are representative of 3 independent treatments."}, "[2]": {"experiment": "Serum cholesterol in 2ME treated rats", "type": "in vivo, rat", "conditions": "100 mg/kg/day oral gavage 13 days"}, "[3]": {"system": "MG63 cells", "experiment": "Apoptotic gene mRNA levels by RNase protection assay", "type": "cell-based, human", "conditions": "10 μM", "description": "The changes in expression of the genes that are known to antagonize or promote apoptosis were analyzed by this method. MG63 cells in triplicate cultures were treated with 10 μM 2ME. Cells were harvested at the end of 12, 24, 48 and 72 h of treatment and used for RNA isolation. Total RNA isolated from cells was analyzed by RNase protection assay using apoptosis template set for multiprobes (Pharmingen; San Diego, Calif.). Quantitation of protected RNA fragments was performed by Phosphor Imager analyses and normalized to L32 or GAP levels. The mRNA for the proapoptotic gene bak and bax were increased by 2ME treatment in MG63 cells (FIG. 7). The increase was significant within 12 h of treatment and reached a maximum (2 fold for bak; 2.5 fold for bax) at 48 h, at which time cell death by apoptosis was detected by in situ TUNEL assay."}, "[4]": {"system": "MG63 cells", "experiment": "Bone matrix protein mRNA levels by northern blot", "type": "cell-based, human", "conditions": "10 μM", "description": "Time course effects of 2ME on steady-state mRNA levels for bone matrix proteins were determined. MG63 cells in triplicate cultures were treated with 10 μM 2ME. Cells were harvested at the end of 0, 12, 24 and 72 h of treatment and used for RNA isolation. Total RNA isolated from cells was analyzed by northern blot hybridization. Ten μg of RNA sample were denatured by incubation at 52° C. in a solution of 1M glyoxal, 50% dimethyl sulfoxide, and 0.01 M NaH2PO4, and then separated in a 1% agarose gel. RNA separated in agarose gels was transferred to an Amersham Hybond nylon membrane overnight via capillary action in 20× standard saline citrate (SSC) (1×SSC=0.15 M NaCl and 0.015 M sodium citrate, pH 7.0), sodium citrate buffer. The amounts of RNA loaded and transferred were assessed by methylene blue staining of the membranes and hybridization with a [^32P]-labeled cDNA for 18S ribosomal RNA. Membranes were prehybridized for 2 h at 65° C. in buffer containing 50% deionized formamide, 10% dextran sulfate, 5×SSC, 100 μg/ml of heat-denatured single-strand salmon sperm DNA, and 2× Denhardts solution. Hybridization was conducted for 80 min in a buffer containing the above ingredients in addition to a minimum of 10^6 cpm per mL [^32P]-labeled cDNA probe. Labeled type I collagen and osteonectin cDNA were used for probing the blots. The cDNA probes were labeled by random sequence hexanucleotide primer extension using the Megaprime DNA labeling kit from Amersham (Arlington Heights, Ill.). The membranes were washed for 30 min at 45° C. in 2×SSC and for 15 to 60 min in 0.1×SSC at 45° C. The resulting radioactive mRNA bands on the blots were quantitated by Phosphorimager (Molecular Dynamics, Sunnyvale, Calif.)."}, "[5]": {"system": "female Fisher 344 rats", "experiment": "Growth plate histomorphometry and longitudinal bone growth rate in rats", "type": "in vivo, rat", "conditions": "100 mg/kg/day oral gavage 13 days", "procedure": "All studies were approved by the Institutional Animal Care and Use Committee of the Mayo Clinic, Rochester, Minn. Rats were kept in plastic cages (3 per cage) under standard conditions of a 12 hr dark and 12 hr light cycle with food (Purina Laboratory rodent diet 5001, Ralston-Purina, St. Louis, Mo.) and water ad libitum. Rooms were maintained at a temperature of 24° C.\nTwenty-five female 3-month-old Fisher 344 rats, weighing approximately 141-160 g, were purchased from Harlan Sprague Dawley (Madison, Wis.). The rats were divided into 3 groups (8 or 9 rats/group) of a baseline group that was sacrificed on the first day of treatment, a control group that was treated with carrier (liposomes) only, and a 2ME treatment group. […] Fluorochromes were given juxta tail vein. Declomycin (20 mg/kg) was given on the first day of treatment and calcein (15 mg/kg) two days prior to sacrifice, in order to label mineralizing bone and cartilage. Twenty-four hours after the last dosage, rats were anesthetized with ketamine HCl (100 mg/kg):xylaxine HCl (10 mg/kg) and sacrificed by decapitation. […] Tibiae were quickly excised and fixed for histomorphometry in a solution of 70% ethanol.\nBone histomorphometry Histomorphometric measurements were performed with the OsteoMeasure Analysis System (OsteoMetrics, Atlanta, Ga.), which consisted of a Pentium 1133 computer coupled to a photomicroscope and image analysis system. […] The region of interest was traced, and the line lengths and area bounded by lines were calculated automatically.\nGrowth Plate Measurements The longitudinal bone growth rate was measured at 5 equally spaced sites across the growth plate as the distance between the declomycin and calcein labels that had been deposited into the mineralizing front of the hypertrophic zone of the growth plate divided by the 11 day interval between application of the sequential fluorochromes.\nGrowth plate thickness was measured as the mean distance between the zone of vascular invasion and the resting zone. Thicknesses of the proliferative zone and hypertrophic zone were also measured.\nStatistical Analvses All values are expressed as mean±standard error (SE). Significant differences between groups were determined by Fisher's Protected Least Significant Difference post hoc test for multiple group comparisons following detection of significance by 1-way ANOVA. Significance was considered at p values ≦0.05."}, "[6]": {"system": "Human fetal osteoblasts (hFOB) cells", "experiment": "Cell survival, viable cell count with trypan blue", "type": "cell-based", "conditions": "2 μM, 72 h", "description": "MG63 and TE85 human osteosarcoma cells, and ROS 17/2.8 rat osteosarcoma cells were grown in DMEM/F12 phenol-red free medium containing 10% charcoal-stripped fetal bovine serum (FBS) and supplemented with 100 units/ml penicillin, 100 μg/ml streptomycin. Cell were incubated at 37° C. under 5% CO2 in air. Cells were plated at 5×10^4 cells per well into 24 well plates containing 1 ml of medium per well. After allowing the cells to attach overnight, media in the wells were replaced with fresh 1 ml medium. Human fetal osteoblasts (hFOB) cells and hFOB cells overexpressing estrogen receptor-alpha (hFOB-ERα) and estrogen receptor-beta (hFOB-ERβ) were grown in DMEM/F12 medium containing FBS, penicillin, streptomycin and Geneticin (300 μg/mL). The laboratory of Dr. B. L. Riggs at Mayo Clinic provided primary human osteoblast (HOB) cells. HOB cells were basically established from cancellous bone obtained as waste from orthopedic procedures and cultured as explants to generate the osteoblast-like monolayers as described by Borke et al., J. Clin. Endocrinol. Metab., 1988, 67:1299-1304. Human FOB cells and hFOB cells stably transfected with estrogen receptors (ERs) were maintained at 34° C., while all other cells were incubated at 37° C. under 5% CO2 in air.\nEstrogen metabolites were diluted 1000 fold to give the final required concentrations in each well, and maintained for 72 hrs. The metabolites 2ME, 2OHE, and E2 were purchased from Sigma Chemical Company (St. Louis, Mo.). Stock solutions for each metabolite were made in 95% ethanol. Cell growth was measured by taking the viable cell count. At the end of metabolite treatment, cells were harvested, stained with trypan blue, and counted under a light microscope."}}, "note": "“Also recorded” adds a separate entry of the source."}
{"smiles": "COc1cc2c(cc1O)CC[C@@H]1[C@@H]2CC[C@]2(C)[C@@H](O)CC[C@@H]12", "note": "[2ME, 2-methoxyestradiol]", "values": [{"measurement": "increase of TGF-β1 mRNA level", "setting": "[1]", "result": 177, "unit": "%"}, {"measurement": "increase of TGF-β2 mRNA level", "setting": "[1]", "result": 289, "unit": "%"}, {"measurement": "increase of TGF-β3 mRNA level", "setting": "[1]", "result": 178, "unit": "%"}, {"measurement": "IFN-β mRNA", "setting": "[1]; 12-72 hours", "result": "Increased"}, {"measurement": "IFN-γ mRNA", "setting": "[1]; 12-72 hours", "result": "Not detected"}, {"measurement": "IL-1 Ra mRNA", "setting": "[1]; 12-72 hours", "result": "Not detected"}, {"measurement": "IL-1α mRNA", "setting": "[1]; 12-72 hours", "result": "Not detected"}, {"measurement": "IL-1β mRNA", "setting": "[1]; 12-72 hours", "result": "Not detected"}, {"measurement": "IL-6 mRNA", "setting": "[1]; 12-72 hours", "result": "Not detected"}, {"measurement": "IL-10 mRNA", "setting": "[1]; 12-72 hours", "result": "Not detected"}, {"measurement": "IL-12 p35 mRNA", "setting": "[1]; 12-72 hours", "result": "Not detected"}, {"measurement": "IL-12 p40 mRNA", "setting": "[1]; 12-72 hours", "result": "Not detected"}, {"measurement": "LT-β mRNA", "setting": "[1]; 12-72 hours", "result": "Not detected"}, {"measurement": "TGF-β1 mRNA", "setting": "[1]; 12-72 hours", "result": "Increased"}, {"measurement": "TGF-β2 mRNA", "setting": "[1]; 12-72 hours", "result": "Increased"}, {"measurement": "TGF-β3 mRNA", "setting": "[1]; 12-72 hours", "result": "Increased"}, {"measurement": "TNF-α mRNA", "setting": "[1]; 12-72 hours", "result": "Not detected"}, {"measurement": "TNF-β mRNA", "setting": "[1]; 12-72 hours", "result": "Not detected"}, {"measurement": "maximum increase of interferon-β mRNA level", "setting": "[1]; by 48 h", "result": 2100, "unit": "%"}, {"measurement": "increase of interferon-β mRNA level", "setting": "[1]; within 12 h", "result": 500, "unit": "%"}, {"measurement": "effect on serum cholesterol (in words)", "setting": "[2]", "result": "decreased; also recorded: highly significant decreases"}, {"measurement": "maximum increase of bak mRNA", "setting": "[3]; 48 h", "result": 2, "unit": "fold"}, {"measurement": "maximum increase of bax mRNA", "setting": "[3]; 48 h", "result": 2.5, "unit": "fold"}, {"measurement": "mRNA levels for bak and bax (in words)", "setting": "[3]; 72 h", "result": "returned to basal level"}, {"measurement": "decrease in osteonectin mRNA level", "setting": "[4]; 12 h", "result": 50, "unit": "%"}, {"measurement": "decrease in type 1 collagen mRNA level", "setting": "[4]; 12 h", "result": 26, "unit": "%"}, {"measurement": "decrease in osteonectin mRNA level", "setting": "[4]; 24 h", "result": 38, "unit": "%"}, {"measurement": "decrease in type 1 collagen mRNA level", "setting": "[4]; 24 h", "result": 37, "unit": "%"}, {"measurement": "mRNA levels for the bone matrix proteins (in words)", "setting": "[4]; 72 h", "result": "returned to normal levels"}, {"measurement": "Proliferative zone thickness", "setting": "[5]; mean ± SE, control 42 ± 5", "result": "11 ± 3", "unit": "μm"}, {"measurement": "Hypertrophic zone thickness", "setting": "[5]; mean ± SE, control 46 ± 6", "result": "6 ± 2", "unit": "μm"}, {"measurement": "Growth plate thickness", "setting": "[5]; mean ± SE, control 153 ± 14", "result": "70±6", "unit": "μm"}, {"measurement": "effect on longitudinal bone growth (in words)", "setting": "[5]; proximal tibia, 100 mg/kg/day", "result": "decreased; also recorded: highly significant decreases"}, {"measurement": "longitudinal bone growth rate", "setting": "[5]; proximal tibia, control 55±2", "result": "20±2", "unit": "μm/day"}, {"measurement": "cell numbers reduced to", "setting": "[6]", "result": 15, "unit": "%"}]}
